Measurements from the supplement of paper PMC11997997.

Tests used:
[1] = system: murine bone marrow-derived macrophages; assay: area under cytotoxicity dose-response curve (AUC (% cytotoxicity x dose, relative)); higher = more cytotoxic; conditions: duration: 6 days; dose range: 0.13-80 uM, 8 points
In short: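 Cytotoxicity is expressed as the area under the dose–response curve from GraphPad Prism version 10. To obtain it, primary murine bone marrow-derived macrophages were incubated for 6 days at 37 °C in 5% CO2 across final concentrations of 80–0.13 μM. Viability came from CellTiter-Glo luminescence, and percent cytotoxicity was normalised to vehicle and positive control wells.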

[2] = system: Mycobacterium tuberculosis CDC1551 (intracellular, in murine BMDM); assay: area under intracellular growth-inhibition dose-response curve (AUC (% inhibition x dose, relative)); higher = more potent; conditions: duration: 6 days; dose range: 0.13-80 uM, 8 points
In short: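 In 384-well opaque plates, primary murine bone marrow-derived macrophages were infected with luciferase-expressing M. tuberculosis CDC1551 (multiplicity of infection 1, 1 h) 24 h after seeding, then treated for 6 days across final concentrations of 80–0.13 μM. Growth was measured by Bright-Glo luciferin assay, normalised to a reference drug control and the lowest-concentration wells. The reported value is the area under the growth-inhibition dose–response curve from GraphPad Prism.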

SMILES	area under cytotoxicity dose-response curve [1]	area under intracellular growth-inhibition dose-response curve [2]
O=[N+]([O-])c1ccccc1-c1cc(-c2ccccc2)cc(-c2ccccc2)[n+]1Cc1ccccc1Cl.[O-][Cl+3]([O-])([O-])[O-]	< 0	144
CC1(C)CC(=O)C=C(Nc2ccc(C(=O)O)c(O)c2)C1	< 0	195
CNC[C@@H](CC1CCCCC1)NC[C@H](CC(C)C)NCCc1cccc(C(F)(F)F)c1	94	197
CSc1nnc(-c2ccc(NC(N)=S)cc2)o1	96.1	154
CCCn1nnc(NC(=S)NC(=O)c2ccccc2OC)n1	25.9	64.2
O=C1CN(C(=O)COC(=O)c2ccc(Br)o2)c2ccccc2N1	23.5	58.2
O=C(NCC1CCCCC1)c1ccc(Br)o1	< 0	274
COc1ccccc1C=NNC(=O)c1ccncc1	9	266
NS(=O)(=O)c1ccc(NC(=O)c2ccc(Cl)c(S(=O)(=O)NCc3ccco3)c2)cc1	< 0	25.5
O=C(/C=C/c1cccs1)N1CCCC1	3.62	168
O=C(/C=C/c1ccco1)c1ccc(NC(=O)C23CC4CC(CC(C4)C2)C3)cc1	< 0	260
CC1CCCN(C(=O)c2ccc(CNc3c(N4CCCCC4)c(=O)c3=O)cc2)C1 (configuration not stated)	23	271
CNC[C@H](Cc1ccccc1)NC[C@@H](Cc1cccc2ccccc12)NCCc1ccc(C)cc1	108	53.8
CCCC(=O)NC(=S)Nc1ccc(NC(=O)c2cccs2)cc1	8.63	261
C/C(=N/NC(N)=S)c1ccc(Br)s1	< 0	268
CCC12CN3CCN(CC(C3)/C1=N/NC(=O)c1ccncc1)C2	13.3	206
O=C(c1ccc2ccccc2c1)N1CCCC1	32.9	222
Cc1cc(OCC(=O)NNC(=O)c2ccncc2)ccc1C(C)C	34.5	259
COc1ccc(/C=N/NC(=O)c2ccncc2)cc1CN1CCN(c2ccc(F)cc2)CC1	3.26	228
CC(=O)Oc1c(C)cc(Cl)cc1C(=O)Nc1ccc([N+](=O)[O-])cc1Cl	113	230
O=C(OCC(=O)c1ccc(Cl)cc1Cl)c1ccccn1	10.1	205
CCc1ccc(OCC(=O)NC(=S)Nc2ccc(C(C)=O)cc2)c(Br)c1	< 0	238
Cc1nc(SCc2cccc(F)c2)c2oc3ccccc3c2n1	< 0	186
COc1ccc(/C=C/C(=O)c2ccc([N+](=O)[O-])o2)cc1	71.5	162
NC(=S)N/N=C/c1ccc(-c2cccc([N+](=O)[O-])c2)o1	51.4	206
C/C(CC(=O)Nc1ccccc1C#N)=N\NC(=O)c1ccncc1	98.9	229
